A short description of data set [1]: (§1) Inhibition of HipA in Escherichia coli K-12 MG1655 assessed as reduction of persister fraction incubated for 8 hrs in presence of kanamycin.
Data set [2] relates to Escherichia coli K-12. The description is as §1.
The subject of data set [3] is Escherichia coli K-12. The experiment in a line: Inhibition of HipA in Escherichia coli K-12 MG1655 assessed as reduction of persister fraction at 250 uM incubated for 8 hrs in presence of ampicillin relative to control.
Data set [4] has as its system T1, Serine/threonine-protein kinase toxin HipA (Escherichia coli (strain K12)), P23874 [D309Q].
T1 sequence (whole entry): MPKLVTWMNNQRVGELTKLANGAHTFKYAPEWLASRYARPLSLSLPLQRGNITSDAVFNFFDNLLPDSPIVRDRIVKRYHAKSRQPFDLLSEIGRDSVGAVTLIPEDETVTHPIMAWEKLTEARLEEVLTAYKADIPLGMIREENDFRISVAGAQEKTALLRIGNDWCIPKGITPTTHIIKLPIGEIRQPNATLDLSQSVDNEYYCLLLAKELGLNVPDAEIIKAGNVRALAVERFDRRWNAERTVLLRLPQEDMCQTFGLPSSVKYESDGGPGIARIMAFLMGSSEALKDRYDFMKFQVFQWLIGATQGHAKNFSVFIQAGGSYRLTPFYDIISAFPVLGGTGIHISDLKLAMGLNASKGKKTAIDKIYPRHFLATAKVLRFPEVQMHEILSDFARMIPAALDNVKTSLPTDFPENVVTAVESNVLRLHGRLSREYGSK
The experiment in a line: Binding affinity to Escherichia coli HipA D309Q mutant expressed in Escherichia coli BL21 (DE3) assessed as slow-on/slow-off type binding at 3.125 to 100 uM by surface plasmon resonance assay.

The target in data set [5] is Serine/threonine-protein kinase toxin HipA (Escherichia coli (strain K12), UniProt P23874, D309Q). Description: (§2) Binding affinity to Escherichia coli HipA D309Q mutant expressed in Escherichia coli BL21 (DE3) by surface plasmon resonance assay. Background: Surface plasmon resonance follows binding to a sensor surface in real time, without labels.
Data set [6] deals with T1, Serine/threonine-protein kinase toxin HipA (Escherichia coli (strain K12)), P23874 [D309Q]. The description is as §2.
A short description of data set [7]: (§3) Inhibition of HipA in Escherichia coli K-12 MG1655 assessed as reduction of persister fraction incubated for 8 hrs in presence of ampicillin.
Data set [8] deals with Escherichia coli K-12. Described as §3.
For data set [9], the system named is Escherichia coli. The experiment in a line: Cytotoxicity against Escherichia coli K-12 MG1655 cells at 250 uM. The format is organism-based.
Data set [10] concerns Escherichia coli K-12. The experiment in a line: Inhibition of HipA in Escherichia coli K-12 MG1655 assessed as reduction of persister fraction incubated for 8 hrs in presence of kanamycin relative to control.
The test system of data set [11] is T1, Serine/threonine-protein kinase toxin HipA (Escherichia coli (strain K12)), P23874 [D309Q]. The experiment in a line: Binding affinity to Escherichia coli HipA D309Q mutant expressed in Escherichia coli BL21 (DE3) assessed as slow-on/fast-off type binding at 3.125 to 87.5 uM by surface plasmon resonance assay.
Data set [12] has the same test system. The experiment in a line: Binding affinity to Escherichia coli HipA D309Q mutant expressed in Escherichia coli BL21 (DE3) assessed as slow-on/fast-off type binding at 0.00015 to 8.75 uM by surface plasmon resonance assay.
For data set [13] the test system is unchanged. The experiment in a line: Binding affinity to Escherichia coli HipA D309Q mutant expressed in Escherichia coli BL21 (DE3) assessed as fast-on/fast-off type binding at 6.25 to 100 uM by surface plasmon resonance assay.
For data set [14], the system named is Escherichia coli. Description: Antipersistence effect in hipA knockout Escherichia coli assessed as reduction of persister fraction at 200 uM in presence of ampicillin. The format is functional, organism-based.

Active and inactive are the calls of the source. No cut-off for these calls is given here. Bounds are passed on as bounds.

For `COc1cc(NC(=O)c2cc3nc(-c4ccc(F)cc4)cc(C)n3n2)cc([N+](=O)[O-])c1`, the EC50 in [1] was determined as 101 µM; in data set [7] it was 84 µM. Moreover, the inhibition result in the data set with Escherichia coli K-12 [2] and with Escherichia coli K-12 [8] was “Dose-dependent effect” in each case. For the same compound, the fold change (FC) in the data set on Escherichia coli K-12 [3] and in the data set with Escherichia coli K-12 [10] was 5 throughout. Also, the result in [4] was Active. The same compound displayed a Kd in data set [5] of 43 µM. The Activity entry is “Dose-dependent effect” in data set [6] and “Non-toxic” in the data set with Escherichia coli [9].

Regarding `CCOC(=O)c1ccc(NC(=O)CSc2nnc(CSc3nc(C)cc(C)n3)o2)cc1`, the EC50 in [1] was 43 µM; in [7], 116 µM. The inhibition entry with Escherichia coli K-12 [2] and in the data set with Escherichia coli K-12 [8] was “Dose-dependent effect” throughout. For the same compound, the values for the fold change (FC) in the data set with Escherichia coli K-12 [3] and with Escherichia coli K-12 [10] were 2 and 3, respectively. Also, the outcome in [11] and in data set [12] was Active. The compound further had a Kd in data set [5] of 35 µM. For the same compound, the Activity result in data set [6] was “Dose-dependent effect”; with Escherichia coli [9], “Non-toxic”.

Take `CCN1CCN(CCNC(=O)c2cccc(Nc3cc(-c4ccccc4)ncn3)c2)CC1`: the EC50 was found to be 111 µM in data set [1] and 126 µM in data set [7]. For the same compound, the inhibition result in the data set with Escherichia coli K-12 [2] and in the data set with Escherichia coli K-12 [8] was “Dose-dependent effect” throughout. Besides, the fold change (FC) with Escherichia coli K-12 [3] and in the data set with Escherichia coli K-12 [10] was 5 in each case. Besides, binding in [5] was put at a Kd of 54 µM. Further, the figures for the Activity result (in data set [6]; in the data set with Escherichia coli [9]) were “Dose-dependent effect” and “Non-toxic”, respectively. For the same compound, the result in data set [13] was Active.

As for `CCc1ccc(C2C(C(=O)c3ccc(OC)cc3)=C(O)C(=O)N2CCc2c[nH]c3ccccc23)cc1` (stereo not drawn), the EC50 in [1] was 28 µM; in [7] it was 46 µM. Also, the inhibition result in the data set on Escherichia coli K-12 [2] and in the data set on Escherichia coli K-12 [8] was “Dose-dependent effect” in each case. Also, the values for the fold change (FC) in the data set with Escherichia coli K-12 [3] and in the data set with Escherichia coli K-12 [10] were 5 and greater than 1, respectively. For the same compound, the result in data set [11] and in data set [12] was Active. In [5], this compound came in with a Kd of 0.27 µM. In addition, the Activity result is “Dose-dependent effect” in data set [6] and “Non-toxic” with Escherichia coli [9]. The result with Escherichia coli [14] was inactive.

Broadly, the EC50 is the concentration at which the effect is half-maximal. A word on the Kd: it is a measure of binding affinity in units of concentration. Read a high Kd as lower affinity.

Values taken from ChEMBL document CHEMBL3808302, “Novel Inhibitors of Toxin HipA Reduce Multidrug Tolerant Persisters” (ACS Med Chem Lett, 2016).
